{"source": "a melting point compilation (Tetko et al.; mined from patent text by program, amines drawn as free bases though some values may be those of a salt)"}
{"units": {"melting point": "°C"}}
{"molecule": "CCOC(=O)c1c(C)ncn(-c2ccc(Cl)cc2)c1=O", "melting point": "98 to 100"}
{"molecule": "Cc1cc2c(cc1C)C1(O)C(=O)c3ccccc3C1(O)O2", "note": "(stereo unspecified)", "melting point": "198 to 200"}
{"molecule": "COc1ccc2cc(-c3ccccc3)cc(CCNC(C)=O)c2c1", "melting point": 135}
{"molecule": "CNc1ccc(-c2nc3c4ccccc4ccc3n2C)cc1", "melting point": "225 to 227"}
{"molecule": "O=C(Cc1ccc(Oc2ccc(C(F)(F)F)cn2)cc1)Nc1ccncc1", "melting point": "167 to 170"}
{"molecule": "Cn1cc(Br)cc(Nc2ccn(C3CC3)n2)c1=O", "melting point": "161 to 163"}
{"molecule": "CC1(C)Oc2c(N)cccc2C1=O", "melting point": "80 to 84"}
{"molecule": "Fc1ccc(-c2cc(CNc3cc(C4CC=CS4)n[nH]3)n[nH]2)cc1", "note": "(stereo unspecified)", "melting point": "128 to 130"}
{"molecule": "O=C(Nc1ccc(Cl)cc1Cl)c1cc(Cl)c(Cl)[nH]1", "melting point": "262 to 264"}
{"molecule": "NS(=O)(=O)c1cc2cnc(CO)cc2o1", "melting point": "222 to 223"}
{"molecule": "O=C1CCc2ccc(OCCCCOc3ccc4c(c3)NC(=O)CC4)cc2N1", "melting point": 218}
{"molecule": "CN1CC(C(=O)c2cccn2Cc2ccc(F)cc2)=C(O)C1=O", "melting point": "150 to 151"}
{"molecule": "O=C(NCCCCn1ccnc1)c1ccco1", "melting point": "88 to 90"}
{"molecule": "CCS(=O)(=O)Nn1c(=O)[nH]c2cc(C(F)(F)F)c(-n3cnnc3)cc2c1=O", "melting point": "185 to 195"}
{"molecule": "COc1cc2[nH]c(N(C)Cc3cccc(Oc4ncccn4)c3)nc(=O)c2c(C)c1OC", "melting point": "224 to 228"}
{"molecule": "O=C(Nc1cccc([N+](=O)[O-])c1)c1cccnc1Oc1cccc(C(F)(F)F)c1", "melting point": "90 to 95"}
{"molecule": "Cc1ccc(S(=O)(=O)c2ccc(O)cc2)c(Br)n1", "melting point": "99 to 102"}
{"molecule": "Cc1ccc(C[C@H](NC(=O)[C@@H](NC(=O)OCc2ccccn2)C(C)C)[C@H](O)[C@H](Cc2ccccc2)NC(=O)[C@@H](NC(=O)OCc2ccccn2)C(C)C)cc1", "melting point": "195 to 198"}
{"molecule": "CCC(CC)c1ccc(Cl)c2nc(Nc3c(C)cc(Br)cc3OC)n(C)c12", "melting point": "218 to 220"}
{"molecule": "O=C(O)c1ccc2c([N+](=O)[O-])cc3c(c2c1)C(CCl)CN3", "note": "(stereo unspecified)", "melting point": "205 to 208"}
{"molecule": "CC(C)c1csc(C(C)C)c1NC(=S)NC(C)(C)C", "melting point": "168 to 169"}
{"molecule": "O=C(CN1CCNCC1C(=O)CCCCCNO)Nc1nc2ccccc2s1", "note": "(stereo unspecified)", "melting point": "150 to 152"}
{"molecule": "O=C1COc2cc(SCc3ccccc3)ccc2N1", "melting point": "153 to 154"}
{"molecule": "O=C(O)c1ccc(-c2cnc3c(c2)N(Cc2cc(F)ccc2F)C(=O)CN3)cc1", "melting point": "> 300"}
{"molecule": "O=C(Cc1ccc(Br)cn1)Nc1ccccn1", "melting point": 131}
{"molecule": "Cc1ccnc(C(O)c2sc(NC(=N)N)nc2C)c1", "note": "(stereo unspecified)", "melting point": "150 to 152"}
{"molecule": "CC(=O)c1cc(-c2ccncc2)sc1-c1ccncc1", "melting point": "117 to 119"}
{"molecule": "CN1CCC(N(C)c2ncc3ncnc(Nc4ccc(N)c([N+](=O)[O-])c4)c3n2)CC1", "melting point": "242 to 246"}
{"molecule": "CC(C)CCOc1c(Sc2ccc(C(C)(C)C)cc2)c(Sc2ccccc2N)c(OCCC(C)C)c2c1C(=N)NC2=N", "melting point": "198 to 199"}
{"molecule": "CN1C(=O)[C@H](NC(=O)/C=C/c2ccccc2Cl)N=C(c2ccccc2)c2ccccc21", "melting point": "128 to 131"}
{"molecule": "Cc1ccc(NC(=O)NCc2ccc3c(c2)CN(C2CCC(=O)N(COC(=O)C4CCN(C(=O)OC(C)(C)C)CC4)C2=O)C3=O)cc1Cl", "note": "(stereo unspecified)", "melting point": "157 to 159"}
{"molecule": "CNC(=O)N(c1ccccc1)c1cccc2ccccc12", "melting point": 146}
{"molecule": "O=C1[C@H]2CCC[C@H]2Nc2ccccc2N1Cc1ccc([N+](=O)[O-])cc1", "note": "(relative stereo)", "melting point": "154 to 155"}
{"molecule": "CCCC(C)SC(=O)c1ccc(NC(=O)NC)cc1Cl", "note": "(stereo unspecified)", "melting point": "89 to 95"}
{"molecule": "O=C(c1ccccc1)C1OC1c1ccccc1", "note": "(stereo unspecified)", "melting point": 90}
{"molecule": "Cc1oc(-c2ccccc2)nc1COc1ccc([N+](=O)[O-])cc1F", "melting point": "155 to 156"}
{"molecule": "CCCc1c(OCCCS(=O)(=O)c2ccc(C(=O)CCC(=O)O)cc2F)ccc(C(C)=O)c1O", "melting point": "154 to 156"}
{"molecule": "Cc1ccc(F)cc1C1CC(=O)CC(=O)C1", "melting point": "175 to 176"}
{"molecule": "O=C(O)Cc1ccc(Oc2ccccc2CC(=O)O)cc1", "melting point": "150 to 152"}
{"molecule": "Oc1cccc(C#Cc2ccc(C(F)(F)F)cc2)c1", "melting point": "131 to 132"}
{"molecule": "COc1ccc(C=NO)cc1-c1cc2c(cc1C)C(C)(C)CCC2(C)C", "melting point": 152}
{"molecule": "Cc1ccccc1C(=O)NC(NC(=O)Nc1cccnc1)C(Cl)(Cl)Cl", "note": "(stereo unspecified)", "melting point": "182 to 184"}
{"molecule": "CCOC(=O)C1=C(C)Nc2cncn2C1c1cccc([N+](=O)[O-])c1", "note": "(stereo unspecified)", "melting point": "196 to 197"}
{"molecule": "CN1CCC(=O)C(C2c3ccccc3Sc3ccccc32)C1", "note": "(stereo unspecified)", "melting point": "155 to 156"}
{"molecule": "CC1(C)CC(=O)C(c2ccc([N+](=O)[O-])cc2Cl)C(=O)C1", "melting point": "250 to 253"}
{"molecule": "CCOC(=O)N1CCN(c2nn(-c3ccc(C(F)(F)F)cc3)c3ccccc23)CC1", "melting point": "123 to 126"}
{"molecule": "CCNC(=S)Nc1ccc(NNC(C)=O)cc1", "melting point": "191 to 193"}
{"molecule": "CCCCCCCCCCCCCCCCCCOc1ccc(S(=O)(=O)Nc2ccccc2Cl)cc1NC(=O)CC(=O)N1CCc2ccccc21", "melting point": "124 to 128"}
{"molecule": "O=C(NCC12CC3CC(CC(C3)C1)C2)c1cc(-c2cccnc2N2CCCC(C(=O)O)C2)ccc1Cl", "note": "(stereo unspecified)", "melting point": "125 to 130"}
{"molecule": "CN(C)c1ccc(N=Nc2ccc(S(=O)(=O)NCc3ccc4c(c3)-c3n[nH]c(=O)c5cccc(c35)O4)cc2)cc1", "melting point": "> 300"}
{"molecule": "O=C1Nc2ccccc2SC1CCCCl", "note": "(stereo unspecified)", "melting point": "98 to 99"}
